In a melting point compilation (Tetko et al.; mined from patent text by program, amines drawn as free bases though some values may be those of a salt):

melting point [°C] | Structure (SMILES)
90 to 91 | COc1cccc(OC)c1C(=O)NCCSCc1cccc(Cl)c1
147 to 148 | CCOC(=O)N[C@@H]1c2cc(C#N)ccc2OC(C)(C)[C@H]1O (relative stereo)
127 to 129 | CCNc1nc(Nc2ccccc2C)c2ccccc2n1
158 to 160 | Cc1ccc(-c2c(NS(=O)(=O)c3ccc(C(C)(C)C)cc3)ncnc2OCCOc2ncc(CCc3ccccc3)cn2)cc1
207 | CC(=O)Nc1c(I)c(NC(C)=O)c(I)c(C(=O)OCC(O)CO)c1I (centres undefined)
175 to 177 | NC(=O)N1CCN2c3ccccc3Cn3cccc3C2C1 (centres undefined)
215 to 217 | COC(=O)C1=Cc2cc(-c3ccc(N4CCOCC4)cc3)ccc2S(=O)(=O)CC1
120 to 121 | CNC(=S)NCCCSc1ncccn1
102 to 104 | C=C(C)C(=O)N1CCC[C@H]1C(=O)O
71 to 73 | Clc1ccc(C2=CCCC2)cc1
145 to 148 | CCOc1nc(Nc2cccc(C(F)(F)F)c2)nc(N2CCN(C(=O)c3ccn(CC)n3)CC2)n1
> 250 | O=c1c(-c2ccccc2O)coc2cc(O)c(Cl)cc12
78 to 79.3 | Nc1ccc(Oc2ccc(Cl)c(Cl)c2)nc1
77 to 79 | CN1C(=O)N(c2ccccc2)S[N+]1(C)[O-] (centres undefined)
100 to 102 | C#CC[C@H](c1nc2cccnc2c(=O)n1Nc1ccccc1)N(CCCNC(=O)OCc1ccccc1)C(=O)c1cccc(Cl)c1F
> 300 | O=c1c(Cl)nc2cccnc2n1-c1ccc(Cl)cc1
210 to 211 | CCn1c(=O)c2cccnc2n(-c2cccc([N+](=O)[O-])c2)c1=O
207 to 209 | CC(C)(O)c1ccc(-c2cnc3[nH]c(=O)n(CC4CCOCC4)c3n2)cn1
160 to 161 | CC(=O)Nc1ccn(C2OC(COC(C)=O)C(OC(C)=O)C2O[N+](=O)[O-])c(=O)n1 (centres undefined)
284 to 286 | COc1cccc(-c2cc3cnc(N)nc3nc2N)c1
137 to 138 | Clc1ccc(-c2cc(C3CC3)n3nccc3n2)cc1
172 to 173 | CN1N=C(c2cccc(F)c2)c2cc(Cl)ccc2CS1(=O)=O
255 to 257 | C[C@@H]1CN(C(=O)N(c2ccccc2)c2ccccc2)[C@@H](C)CN1C(=O)N(c1ccccc1)c1ccccc1
215 to 216 | CSc1nnc(Cc2cccnc2)c(=O)[nH]1

melting point [°C] | Structure (SMILES)
115 to 118 | CCC(CC)c1ccc(Cl)c2nc(Nc3ccc(C)cc3Br)n(CCCCO)c12
131 | Oc1ccc(-c2nn(C3CCCC3)c3c(F)cccc23)cc1
110 to 112 | CCC(COC(=O)c1ccc(N)c(Cl)c1OC)(c1cccs1)N(C)C (centres undefined)
215 to 216 | CCCc1nc(N)nc(N)c1N1CCN(c2ccc(C(=O)OCC)cc2)CC1
113 to 114 | COc1c(CS(=O)(=O)C2=NOC(C)(C)C2)c(C(F)(F)F)nn1C
> 250 | CC(C)c1cccc2[nH]c(C(=O)O)cc(=O)c12
194 | C=NOC(C(=O)O)c1cccc(NC(=O)NCC(=O)N2C(c3ccccc3)CCC2c2ccccc2)c1 (centres undefined)
54 to 57 | Cc1cc2ncccn2n1
69 to 101 | CC(=O)OC1CSC(Oc2cccnc2-c2ccccc2)C(OC(C)=O)C1OC(C)=O (centres undefined)
160 | COc1ccc(-c2cn(O)c(=S)[nH]2)cc1
265 to 268 | COc1ccc(OC)c2c1C(=O)OC2=O
143 | COCC(=O)Nc1cccc(-n2nc(OC)c(=O)n(Cc3ccc(Cl)cc3)c2=O)c1
126 to 127 | CCc1cccc2c3c([nH]c12)C(CC)(CCOC(C)=O)OCC3 (centres undefined)
124 to 126 | Cc1nc2cc(Oc3ncccc3C(=O)NCc3ccc(C(C)(C)O)cc3)ccc2s1
148 to 149 | COc1ccc(-c2cnoc2-c2ccc(OC(C)C)cc2O)cc1
161 to 162 | O=c1n(-c2ccc(OCC(F)(F)C(F)F)cc2)cnn1-c1ccc([N+](=O)[O-])cc1
158 to 159 | Oc1c2c(nn1-c1ccc(C(F)(F)F)cn1)CCc1ccccc1-2
110 to 111 | CCCN(CCC)Cc1coc(-c2ncn3c2CN(C)C(=O)c2sccc2-3)n1
118 to 120 | CCCCc1nc2c(N)nc3ccccc3c2n1CCCCSc1ccccc1
228 to 229 | CN(C)C(N)=C(C#N)C#N
90 to 92 | Cc1cccnc1NC(=O)C(C)(C)C
217 to 219 | CCn1c(=N)c(-c2c(Cl)cccc2Cl)cc2cnc(SC)nc21
159 to 160 | CCCCNC(=O)NCCCn1c(CCOC)nc2c(N)nc3ccccc3c21
68 to 71 | CC(=O)N1CCC2(c3ccccc3)OC2C1 (centres undefined)

melting point [°C] | Structure (SMILES)
200 to 202 | CC1COc2c(F)c(F)cc(C(=O)O)c2N1 (centres undefined)
133 to 134 | CN1CCN(C)C1=Nc1ccccc1N1CCOCC1
122 to 124 | CCC(=O)CC(=O)c1ccc(C(=O)CC(=O)CC)cc1
202 to 204 | CN1C(O)=C(C(=O)Nc2ccc(Cl)cc2)c2ccsc2S1(=O)=O
173 to 175 | CN1CCC2(CC1)SC(C(C(=O)OC(C)(C)C)N1C(=O)c3ccccc3C1=O)NC2C(=O)OCc1ccccc1 (centres undefined)
95 to 97 | CCCCSc1cc([N+](=O)[O-])cc2c1C(=O)OC2=O
146 to 148 | CCN1CCCC1CNC(=O)c1cc(S(=O)(=O)N(C)C)cc2c1OCCO2 (centres undefined)
172 | COC1=CC(C=O)(NC(c2ccccc2)(c2ccccc2)c2ccccc2)NC=C1 (centres undefined)
263 to 265 | O=C(O)c1cccc(-c2ncn(-c3ccc(-c4ccccc4)cc3)n2)c1
129 to 131 | Cc1nc(-c2ccccc2)nc(-c2ccc(O)c(N)c2)c1C(=O)N1CCN(C)CC1
190 to 193 | CN1CCN(C(=O)CC2c3ccccc3C(=O)N2c2ccc(Cl)cn2)CC1 (centres undefined)
74 to 74.5 | CCOC(=O)c1ccc(/C=C(\COCc2ccc(OC)cc2)Cn2ccnc2)c(OC)c1
208 to 210 | O=C(O)c1cccc(CC2COc3ccc(OCc4nc5cc(F)ccc5s4)cc3C2O)c1 (centres undefined)
50 to 52 | O=C(O)c1ccc(NCCCCCCCCCCCc2ccccc2)cc1
185 | NS(=O)(=O)c1ccc(NC(=O)CNc2ccc(Cl)cc2)c(Cl)c1
219 to 222 | COc1ccc(-c2cc(=O)c3c(O)cc(O)c(-c4cc(-c5cc(=O)c6c(O)cc(O)cc6o5)ccc4OC)c3o2)cc1
102 to 104 | CCOCN1C(C)=C(C(=O)OCC)C(c2cccc([N+](=O)[O-])c2)C(C(=O)OCCBr)=C1C (centres undefined)
197 to 200 | O=C(CC1CCCCC1)NC1CC(C(=O)O)Nc2cc(Cl)cc(Cl)c21 (centres undefined)
219 to 221 | COc1ccc(-c2cc(C(F)(F)F)ccc2/C=C/C(=O)Nc2ccc3[nH]ccc3c2)cn1
156 to 157 | CCON=Cc1c(S(C)(=O)=O)ccc(C(=O)C2C(=O)CC(C)(C)CC2=O)c1Cl
116 to 117 | O=C(O)COc1ccc(SCc2ccc(OCc3ccc(F)c(C(F)(F)F)c3)cc2)c2c1CCC2
38.5 to 40.5 | CC(C)(C)c1ccccc1C(=O)O
120 | Clc1ccc(OCSc2ncc(Cl)cn2)cc1
175 to 176 | O=[N+]([O-])c1cnc2cc3c(cc2c1-c1ccccc1Cl)CCC3

melting point [°C] | Structure (SMILES)
217 to 219 | O=C(O)COc1ccc(CCC(=O)c2ccc(-c3ccc(C(F)(F)F)cc3)s2)c(Cl)c1Cl
88 to 90 | CCCCCCCCCCCCCCCCCC(c1ccc(O)cc1)c1ccc(O)cc1
211 to 213 | NS(=O)(=O)c1ccc(-c2coc(=O)n2-c2ccc(F)cc2)cc1
63 to 63.5 | CCOCCOC(=O)C1=C(C)N(COCC)C(C)=C(C(=O)OCCOCC)C1c1cccc([N+](=O)[O-])c1
135 to 136 | CSc1nc(CC2CCN(c3ccc(C(C)(C)C)cc3)CC2)nc(C(=O)NCC(=O)O)c1O
140 to 141 | COc1ccc(C2=NN(C3CCSCC3)C(=O)[C@H]3CC=CC[C@@H]23)cc1OC (relative stereo)
> 300 | Cc1scc2c1N(C(=O)NCCN1CCC(CCCN(C)C)CC1)c1ccccc1NC2=O
139 to 140 | CC(C)(C)OC(=O)CN1CCN(c2ccnc(C#N)c2)C1=O
277 to 285 | Cn1c(=O)[nH]c(=O)c2cccnc21
98 to 102 | Cc1ccc2cc(NC(=O)c3cccc(CCc4cc(Nc5ccccc5)n[nH]4)c3)ccc2n1
86 to 87 | C=Cc1ccc(C(=O)Oc2ccc(C(=O)O)cc2)cc1C12CC3CC(CC(C3)C1)C2
132 | O=C1C=CC(c2ccccc2)(c2ccccc2)[C@@H]2CN(Cc3ccccc3)C[C@H]12 (racemic)
42 to 43.5 | C=C(CS(=O)CCCC)c1ccccc1 (centres undefined)
271 to 274 | CC1CCc2c(Cl)c(N3CCOCC3)cc3c(=O)c(C(=O)O)cn1c23 (centres undefined)
126 to 127 | COCCOc1ccc(/C=C(\C)C(=O)O)c(Oc2ncc(Cl)cc2Cl)c1
52 to 58 | Cc1noc(NS(=O)(=O)c2ccccc2-c2ccc(C(F)(F)C(C)C)cc2)c1C
89 to 90 | COC(=O)c1ccc(Cn2ncc3ccccc32)cc1
216 to 218 | NS(=O)(=O)c1ccc(-n2nc(CNC(=O)NO)cc2-c2ccc(Cl)cc2)cc1
202 | CNN(NC)C(=O)Nc1cccc2c1C(=O)c1c-2n[nH]c1-c1ccco1
209 to 210 | Cc1ccn(-c2ccc(C)c(C(=O)N3Cc4cccnc4Nc4ccccc43)c2)n1
140 to 141 | CCOc1nn(Cc2ccc(OCc3ccc(-c4ccccc4)nc3)cc2)cc1CCC(=O)O
222 to 225 | CCCCn1c(CCCCN(C(N)=O)c2ccccc2)nc2c(N)nc3ccccc3c21
284 to 286 | O=C(c1ccoc1)c1cccc(-c2c(O)c3ccc(Cl)cc3[nH]c2=O)c1
75 to 77 | NCC(=O)NC(Cc1ccccn1)c1ccccc1 (centres undefined)

Structure (SMILES) | melting point [°C]
CC(=O)OC1CCC2C3CCC4=CC(=O)C=CC4(C)C3CCC12C (centres undefined) | 165
Oc1ccc2c(c1)C13CCCCC1N(C2)NCC3 (single isomer, unassigned; (-)) | 244 to 246
CN(c1cccc(-c2ccnc3c(C(=O)c4cccs4)cnn23)c1)S(C)(=O)=O | 169 to 170
